The record followed here is US20110091375A1, “USE OF THE COMBINATION COMPRISING TEMOZOLOMIDE AND TNF-ALPHA FOR TREATING GLIOBLASTOMA” (THE UNIVERSITY OF CHICAGO, priority 2004, published 2011).

Data set [1] has as its system NF-κB in MIAPaCa-2 pancreatic cancer cells. The data set is described as follows: NF-κB-responsive luciferase reporter assay, MIAPaCa-2. It is filed as cell-based, human.
The test system of another data set is U87 cells. The data set is described as follows: U87 cell viability (Trypan Blue dye exclusion, MTS). The note with it: 10 ng/mL TNFα and/or 100 μM TMZ. It is filed as cell-based, human. The method, then: Trypan Blue dye exclusion method was employed. 10^4 U87 cells were plated and incubated at 37° C. overnight. Subsequently, the cells were contacted with media containing TNFα (10 ng/mL) and/or TMZ (100 μM), incubated for 3 h, and washed. […] All of the studies were performed in triplicate.

A further data set relates to JNK. The data set is described as follows: JNK phosphorylation (activation), Western blot. It is filed as cell-based, human. The note with it: glioma cells. The method, then: (§1) 20 μg of whole U87 cell (or nuclear) lysate was subjected to sodium dodecyl sulfate (SDS)-polyacrylamide gel electrophoresis (PAGE). Following electro-transfer, Immobilon-P membranes (Millipore Corp. Burlington, Mass., USA.) were probed with primary polyclonal antibody against IκBα, phospho-Ser32-IκBα, SAPK/JNK, phospho-Thr183/Tyr185-SAPK/JNK, p65, phospho-Ser536-p65 (Cell Signaling Technology Inc. Beverly, […]., USA) diluted 1:1000 overnight at 4° C. Anti-rabbit IgG HRP-linked secondary antibody (Cell Signaling Technology) was diluted 1:1000 in blocking buffer and applied for 1 h at room temperature. Immunoreactive bands were detected by SuperSignal enhanced chemiluminescence (ECL) (Pierce, Rockford, Ill., USA) and exposed to Kodak X-Omat film.

The next data set in a line: LD50 of IP TMZ. Also on record: species or system mice. The note with it: mouse, in vivo.
The subject of data set [2] is U87 intracranial xenografts. The data set is described as follows: Intracranial glioma xenograft survival. The data set is classed as in vivo, nude mice. The note with it: first intracranial experiment; TMZ 20 mg/kg total IP, single IC Ad.Egr-TNF. The method, then:
Intracranial Studies: In two separate experiments, 5×10^5 U87 cells were inoculated into the right caudate nucleus on day 0 using a screw guide technique (Lal, S. et al. (2000) J Neurosurg 92:326-333). In the first experiment, mice were randomized into four groups as described above in Example 4. On day 5, a single intracranial (IC) injection of 5×10^8 pu Ad.Egr-TNF in 5 μl volume was made directly into the tumor using the screw guide technique. TMZ (5 mg/kg) was given IP 3 h after IC vector inoculation. Three additional IP TMZ injections were administered on consecutive days for a total dose of 20 mg/kg. Control animals received SFM IT and IP.
(§2) In a second experiment, mice were randomized into eight groups (untreated control (UTC); intratumoral (IT) Ad.Egr-TNF alone; intraperitoneal (IP) TMZ alone; IR alone; Ad.Egr-TNF and TMZ; Ad.Egr-TNF and IR; TMZ and IR; and Ad.Egr-TNF, TMZ and IR). A single dose of 5×10^5 U87 cells was inoculated into the right caudate nucleus of each mouse on day 0 using a screw guide technique (Lal, S. et al. (2000) J Neurosurg 92:326-333). On day 5, 5×10^8 pu Ad.Egr-TNF in 5 μL volume was injected once via the screw guide directly into the tumor. Beginning two hours after vector injection, 5 Gy IR was delivered to the tumor area and repeated every 2-3 days to a total of 30 Gy. […]

A further data set relates to p65. Kind of data set: TNFα-induced p65 phosphorylation (Western blot). It is filed as cell-based, human. The method, then: as §1
Data set [3] concerns U87 intracranial xenografts. The data set is described as follows: Histological analysis and TUNEL of intracranial tumor sections. The data set is classed as in vivo, nude mice. The note with it: day 7. The method, then:
as §2, with “Gy. TMZ (5 mg/kg) was given IP 3 h after vector inoculation and like doses were given daily for the next two days for a total dose of 15 mg/kg. Control animals received SFM IT and IP and were also placed in Lucite chambers. Daily assessment of animal appearance was made.” for “Gy.”
Paraffin embedded brains were sectioned (8 μm), stained with hematoxylin and eosin and analyzed in a blinded fashion.
Terminal deoxynucleotidyl transferase-mediated dUTP-biotin nick end-labeling (TUNEL) assay was performed in accordance with the manufacturer's instructions (Chemicon) and analyzed blindly at 400× magnification by use of a computer-aided light microscope with reconstruction software (Neurolucida, Microbrightfield, Vt.). […]

The test system of data set [4] is U87 cells infected with Ad.Egr-TNF. Kind of data set: TNFα induction in vitro (Quantikine ELISA of conditioned media). It is filed as cell-based, human. The method, then:
10^6 U87 cells were plated and incubated overnight. The cells were then infected with Ad.Egr-TNF at a multiplicity of infection (MOI) of 100 for 3 h at 37° C. After incubation, 3.8 mL of complete media with or without TMZ was added. Conditioned media were harvested at 48 h after treatment and human TNFα production was quantified using a Quantikine ELISA kit (R&D System Inc., Minneapolis, Minn.).

The test system of data set [5] is NF-κB in Panel pancreatic cancer cells. Kind of data set: NF-κB-responsive luciferase reporter assay, Panel. The data set is classed as cell-based, human.

For `Cn1nnc2c(C(N)=O)ncn2c1=O` [TMZ, temozolomide], the “TNFα-induced NF-κB transcriptional activity” value in [1] and in data set [5] was “activated” each time. Besides, the “effect on U87 cell viability” value in the data set on U87 cells is “Minimal effects”. In addition, the “JNK phosphorylation (activation)” value with JNK is “progressive and delayed activation”. For the same molecule, the 50% lethal dose (LD50) in the data set “LD50 of IP TMZ” is around 500 mg/kg. For the same molecule, the median survival in data set [2] was determined as 28 days. The “TNFα-induced p65 phosphorylation” value in the data set on p65 was “inhibits”. For the same molecule, the TUNEL positive cells in data set [3] came to 14±12 TUNEL^+ cells/10^−6 mm^2. In [4], the “TNFα detection in vitro” value was “TNFα was detected”. Also, in data set [4] (U87 cells infected with Ad.Egr-TNF (MOI 100), 100 μM TMZ, 48 h), the “increase in TNFα expression compared to cells infected with vector alone” value is given as 2.3 fold.
